Where “and” joins values, the source holds several entries; their conditions need not be identical. Equal values may be shown once.
What was measured:
[1] = system: animal models of neuropathic pain (spinal nerve ligation); conditions: administered locally; cited from earlier work
[2] = system: animal models of inflammatory pain (formalin test); conditions: administered locally; cited from earlier work
[3] = organic solvents; cited from earlier work
[4] = parameters: species or system human; conditions: in vivo
Experimental: The pharmacokinetic parameters of Cmax, Tmax, AUC(0-tlast) and t½ were evaluated.

[5] = system: subjects with osteoarthritis of the knee; experiment: Osteoarthritis of the knee safety study: VAS pain score at the target knee; type: in vivo, human
Experimental: (§1) Each subject had 3 study visits: a Screening Day (Day −7 to −1), the Treatment Day (Day 0), and a Post-Treatment Day (scheduled for Day +2, +4, +7, or +14). On the Treatment Day the subject was randomized, pre-treatment evaluation was performed. The patients were brought into the procedure room, and a VAS pain score was taken (0 mm-no pain, 100 mm-extreme pain). Once the patient had marked his or her pain on the card, he/she was prepped for knee cannulation. Once the cannula was placed, the patient received by intra-articular infiltration, 3 mg/kg (maximum dose of 200 mg) of 2% lignocaine into the knee scheduled to be replaced.
(§2) VAS pain scores as well as verbal reports were taken immediately following administration, as well as prior to knee replacement surgery. No subjects discontinued from the study due to adverse events.
On the Post-Treatment Day, study evaluation was performed followed by the scheduled knee replacement, with intra-operative bone and soft tissue biopsies performed for subsequent examination. […] This therefore left the 3 placebo and 9 active patients from the 4 day, 7 day, and 14 day cohorts.

[6] = system: subjects undergoing transpositional osteotomy (bunionectomy); experiment: Bunionectomy efficacy study: VAS pain score and rescue medication; type: in vivo, human; conditions: for VAS pain score at operation site: 1000 μg into wound, mean +/- SEM, n = 11
Experimental: The primary efficacy endpoint was the proportion of subjects in each treatment group requiring opioid analgesia in the first 24 hours post-operatively. The proportions were compared amongst treatment groups using the Cochran-Haenszel test. Secondary efficacy end points included: i) proportion of subjects in each treatment group requiring opioid analgesia in the first 36 hour period post-operatively (Similarly, the proportions were compared amongst treatment groups using the Cochran-Haenszel test); ii) proportion of subjects in each treatment group requiring opioid analgesia in the 10 day period post-operatively (Similarly, the proportions were compared amongst treatment groups using the Cochran-Haenszel test); iii) time to first usage of opioid analgesia in each treatment group (a survival analysis approach will be used: the product-limit (Kaplan-Meier) method will be applied to time to first usage of opioid analgesia. The median time to first usage of opioid analgesia will be estimated in both treatment groups. Pairwise comparisons will be performed to test for equality of the survival curves between the 2 treatment groups using both the log-rank and the Wilcoxon test); iv) total usage of analgesia in each treatment group (the total usage of analgesia will be compared by an analysis of variance with treatment and center as independent variables. A pairwise comparison will be performed between the treatment groups); and v) VAS assessment of pain at the site of operation in each treatment group (The VAS score at each time point will be compared by an analysis of variance with treatment and center as independent variables. A pairwise comparison will be performed between the treatment groups). […] The efficacy analysis was performed on the data obtained ten days postoperatively. The safety analysis was performed based on the safety data for the entire study, including the 6 week and 12 week follow-up periods. The blind was broken at the time the efficacy analysis was performed. However, the individual treatment assignment was available to the statistical analysis group only. All other personnel involved in the study, including the Investigator, study monitor and proprietary staff, remained blinded until the entire study was completed.
The study was designed to include 40 evaluation subjects. […] Each subject had six (6) study visits: a Screening Day (Day −28 to −1), an Operation Day (Day 0), and four (4) Follow-up visits (scheduled for Days 3, 10 and weeks 6 and 12).
On Operation Day (Day 0) the following was performed: a) Pre-operation: Prior to the initiation of an ankle block, inclusion/exclusion criteria assessment was performed. […] Immediately prior to wound closure, the Investigator slowly dripped the study medication (4 mL) from a syringe into the wound, ensuring even tissue exposure. The wound was then be closed according to normal practices and procedures.
In the 24 hours following administration of study medication, vital signs (supine pulse rate and blood pressure) were recorded at 1, 2, 4 and 24 hours post administration. VAS assessment of pain at the operation site was performed at 1, 4, 8, 12 and 24 hours post administration. In those instances where VAS measurements coincide with blood sampling procedures, the VAS assessment was performed first. […] The quantity of each blood sample was 10 mL. Laboratory safety assessments, e.g., haematology, biochemistry, urinalysis were performed at 24 hours post administration. Adverse events were spontaneously reported by the subject and recorded. Rescue analgesia medication was provided to the subject if required (initially diclofenac 50 mg, repeated at 8 hourly intervals if necessary). When diclofenac was judged by the Investigator to provide inadequate pain relief then the subject was provided with alfentanil 1 mg, repeated at 6 hourly intervals, if necessary.

rats = conditions: systemic, cited from earlier work
[7] = system: subjects with osteoarthritis of the knee; experiment: Osteoarthritis of the knee safety study: safety and tolerability of intra-articular capsaicin; type: in vivo, human; conditions: for patients reporting transient burning pain / post injection hyperalgesia after instillation: 4 subjects
Experimental: The primary objective of the study was to evaluate the safety and tolerability of intra-articular capsaicin, when co-administered with intra-articular local anesthetic, compared to placebo, in subjects with end-stage osteoarthritis of the knee, already scheduled to receive knee replacements.
The study was designed to include 16 evaluation subjects. […] Sixteen subjects completed the study.
Patients were treated randomly and in double-blind fashion in four treatment groups, with each group having a progressively longer interval between the intra-articular administration of study medication and subsequent total knee replacement (2, 4, 7, and 14 days). […] Gross and microscopic pathology analysis was completed for each treatment group before the next treatment group was treated.
as §1, §2

Compound: CNCCCN1c2ccccc2CCc2ccccc21 [desipramine]
- local antinociceptive action [1]: produced local antinociceptive actions
- local antinociceptive action [2]: produced local antinociceptive actions

Compound: CN(C)CCC=C1c2ccccc2CCc2ccccc21 [amitriptyline]
- local antinociceptive action [1]: produced local antinociceptive actions
- local antinociceptive action [2]: produced local antinociceptive actions

Compound: COc1cc(CNC(=O)CCCC/C=C/C(C)C)ccc1O [purified capsaicin, N-(4-hydroxy-3-methoxybenzyl)-8-methylnon-trans-6-enamide]
- solubility in alcohol, ether, benzene and chloroform [3]: freely soluble
- plasma concentrations compared with 100 μg or 300 μg dose groups [4]: clearly lower
- VAS reduction, prior to administration vs day of surgery ([5]; 9 active patients of 4, 7 and 14 day cohorts, 10-300 μg pooled): 62±14%
- median decrease from baseline to pre-operative time point in VAS for pain at target knee vs placebo ([5]; all 3 capsaicin dose groups): substantially greater
- treatment related indication of efficacy (VAS) ([5]; any of the dose levels 10, 100, 300 μg): No clear treatment related indication of efficacy
- effect on pain score and use of rescue ([6]; 1000 μg into the wound prior to wound closure): reduced both pain score as well as the use of rescue
- time at which subject required rescue ([6]; 1000 μg, individual subjects): 1 h and 4 h and 5 h and 8 h and 12 h
- VAS pain score at operation site ([6]; 8 hr): 5.5 +/− 2.3
- VAS pain score at operation site ([6]; 12 hr): 8.2 +/− 3.8
- VAS pain score at operation site ([6]; 24 hr): 1.9 +/− 1.0
- VAS pain score at operation site ([6]; 48 hr): 5.9 +/− 2.5
- effect on pain threshold (rats; final doses 50 mg/kg or greater): pain threshold elevated
- effect on radiation induced hyperalgesia and pain threshold (rats; final doses of 25 mg/kg or less, prior to ultra violet radiation): prevented radiation induced hyperalgesia, but did not elevate the pain threshold above normal range
- patients reporting transient burning pain / post injection hyperalgesia after instillation ([7]; 10 μg intra-articular after 2% lignocaine): no subjects
- patients reporting transient burning pain / post injection hyperalgesia after instillation ([7]; 10 μg intra-articular after 2% lignocaine, listed as capsaicin): 0 of 4
- duration of post-administration (hyper) algesic pain ([7]; 100 μg dose group, individual subject): 9 min
- patients reporting transient burning pain / post injection hyperalgesia after instillation ([7]; 100 μg intra-articular after 2% lignocaine): 1
- patients reporting transient burning pain / post injection hyperalgesia after instillation ([7]; 100 μg intra-articular after 2% lignocaine, listed as capsaicin): 1 of 4
- patients reporting transient burning pain / post injection hyperalgesia after instillation ([7]; 300 μg intra-articular after 2% lignocaine): 4
- patients reporting transient burning pain / post injection hyperalgesia after instillation ([7]; 300 μg intra-articular after 2% lignocaine, listed as capsaicin): 4 of 4
- effects on laboratory safety parameters or vital signs ([7]; 10-300 μg): no treatment related effects
- effects on soft tissue, cartilage, or bone upon histopathological examination ([7]; 10-300 μg): no treatment related effects
- signs of erythema, edema, or hemorrhage at the site of injection ([7]; 10-300 μg): no treatment related signs
- systemic side effects ([7]; 10-300 μg): No treatment related systemic side effects
- average duration of hyperalgesia ([7]; all cases): less than thirty minutes
- gross and microscopic pathology ([7]; knee replaced 2-14 days after dosing): normal

Reference: patent US20090117167A1 (AlgoRx, priority 2002, published 2009)
